ChEMBL document CHEMBL1134508, “3-(4-aroyl-1H-pyrrol-2-yl)-N-hydroxy-2-propenamides, a new class of synthetic histone deacetylase inhibitors” (J Med Chem, 2001)
Square brackets hold non-standard residues; d marks the D form. Peptide text beside a SMILES is read from it. Aoe = N[C@@H](CCCCCC(=O)[C@@H]1CO1)C(=O)O

How the values were obtained:
Histone deacetylase HD2 [1] = molecular target: T1, Histone deacetylase HD2 (Zea mays, UniProt Q94F81); assay: Experimental anti-HDAC (anti-histone deacetylase) activity of the compound
T1 sequence (Q94F81 whole entry): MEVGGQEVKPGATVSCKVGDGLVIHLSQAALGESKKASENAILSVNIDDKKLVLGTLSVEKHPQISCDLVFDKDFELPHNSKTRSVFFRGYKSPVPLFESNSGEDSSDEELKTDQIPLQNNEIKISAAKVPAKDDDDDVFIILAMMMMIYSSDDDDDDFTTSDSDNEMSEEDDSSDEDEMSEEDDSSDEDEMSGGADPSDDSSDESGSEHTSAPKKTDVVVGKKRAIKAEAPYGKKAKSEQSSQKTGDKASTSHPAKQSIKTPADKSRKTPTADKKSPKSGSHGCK

Histone deacetylase HD2 [2] = molecular target: T1, Histone deacetylase HD2; assay: Inhibitory concentration against histone deacetylase activity
[3] = molecular target: T2, Histone deacetylase HD2 (Zea mays) (UniProt Q94F81); assay: Percent inhibition of histone deacetylase activity at 30 uM
T2 sequence (whole entry): T1 sequence (Q94F81 whole entry)

[4] = molecular target: T2, Histone deacetylase HD2 (Zea mays); assay: Percent inhibition of histone deacetylase activity at 5 mM

Compound	Ki (Histone deacetylase HD2 [1])	IC50 (Histone deacetylase HD2 [2])	inhibition [3]	inhibition [4]
O=C(CCCCCCC(=O)Nc1ccccc1)NO [VORINOSTAT]	0.132 µM	–	–	–
Cn1cc(C(=O)c2ccc([N+](=O)[O-])cc2)cc1/C=C/C(=O)NO	2.34 µM	3.9 µM	78%	–
O=C1N[C@@H](Cc2ccccc2)C(=O)N2CCC[C@@H]2C(=O)N[C@@H](CCCCCC(=O)[C@@H]2CO2)C(=O)N[C@H]1Cc1ccccc1 [TRAPOXIN B] (cyclo(FF[dP][Aoe]))	–	0.01 µM	–	–
CN(C)c1ccc(C(=O)c2cc(/C=C/C(=O)NO)n(C)c2)cc1	1.45 µM	2.4 µM	88%	–
Cn1cc(C(=O)c2ccccc2)cc1CCC(=O)NO	0.00437 µM	36.8 µM	45%	–
CCCC(=O)[O-].[Na+]	–	–	–	35%

Second part, the molecule after the results:

Ki (Histone deacetylase HD2 [1])	IC50 (Histone deacetylase HD2 [2])	inhibition [3]	inhibition [4]	Compound
2.29 µM	3.8 µM	86%	–	Cn1cc(C(=O)c2ccccc2)cc1/C=C/C(=O)NO
1.74 µM	2.9 µM	75.2%	–	COc1ccc(C(=O)c2cc(/C=C/C(=O)NO)n(C)c2)cc1
2.29 µM	3.8 µM	84%	–	Cn1cc(C(=O)c2ccc(F)cc2)cc1/C=C/C(=O)NO
1.45 µM	2.4 µM	87%	–	Cn1cc(C(=O)c2ccc(Cl)cc2)cc1/C=C/C(=O)NO
1.12 µM	1.9 µM	86.4%	–	Cc1ccc(C(=O)c2cc(/C=C/C(=O)NO)n(C)c2)cc1
–	–	0.2%	–	Cn1cc(C(=O)c2ccccc2)cc1/C=C/C(=O)NN
–	–	0.9%	–	Cn1cc(C(=O)c2ccccc2)cc1/C=C/C(=O)NCCO
